{
  "source": "patent US20260335344A1",
  "about": "“NOVEL FORMULATIONS AND USES” (DANSTAR FERMENT AG, priority 2022, published 2026)",
  "key": {"[1]": {"tested_on": "Acinetobacter baumannii", "test": "Relative quantity of Acinetobacter baumannii by metagenomic (16S rRNA) sequencing after L-arabinose treatment", "format": "cell-based", "text": "(§1) The objective of the experiments is to evaluate the effect of L-arabinose at different concentrations on a bacterial pool mimicking the skin microbiota by quantification of the bacterial mix using metagenomic sequencing. Five different types of bacteria are obtained from ATCC®: Micrococcus luteus (Cat. No. 4698), Corynebacterium striatum (Cat. No. BAA-1293), Staphylococcus epidermidis (Cat. No. 12228), Acinetobacter baumannii (Cat. No. 19606) and Streptococcus mitis (Cat. No. NCIMB-13770). The bacteria are common skin bacteria, selected to roughly mimic the skin microbiota. The bacteria are grown on specific media, either solid media (Brain Heart Infusion (BHI) Agar from Condalab (Cat. No. 1048.00) or Trypticase Soy (TS) Agar from Condalab (Cat. No. 1068.00)) or on liquid media (either Brain Heart Infusion Broth from Condalab (Cat. No. 1400.00) or Trypticase Soy Broth from Condalab (Cat. No. 1224.00)). The bacteria culture is performed according to the ATCC instructions and adapted to the specific conditions of each bacterium: all bacteria are grown in BHI medium at 37° C. in an aerobic environment shaking at 120 rpm, except for Streptococcus mitis which requires an anaerobic environment, so without shaking and with paraffin oil from Sigma-Aldrich (Cat. No. 185812) above the medium to cut off contact with air.\n(§2) Growth kinetics are carried out for each bacterium to determine their different growth phases and in particular the time needed to reach the exponential phase. Aerobically growing bacteria are plated on solid medium and then a colony is inoculated into 10 mL of liquid medium. An OD at 600 nm is then taken at regular time intervals from T0, the inoculation time, to obtain a growth curve until reaching the stationary phase. Anaerobically growing bacteria are directly inoculated at 500 μL into 9.5 mL of medium.\n(§3) Bacteria are treated during 6 hours with L-arabinose, diluted in culture medium. L-Arabinose is first resuspended in culture medium at a concentration of 5%. The following dilutions are directly realized in culture medium at the following concentrations: 3.5%, 2%, 1% and 0.5%.\n(§4) Each bacterium from the mix is initially grown independently. Once the exponential phase starts, Corynebacterium striatum, Micrococcus luteus and Staphylococcus epidermidis are mixed and grown in the presence or not of the L-arabinose at different concentrations for 6 hours, before reaching the stationary phase. Acinetobacter baumannii and Streptococcus mitis are grown independently with the L-arabinose due to their specific nature (Biosafety Level 2 (BSL-2) bacteria and anaerobic growth for Streptococcus mitis) and pulled in the final mix. Then, the mix is centrifugated and sent to sequencing. Bacterial DNA is isolated, sequenced, and 16S rRNA sequences are matched to taxonomic databases.\nFIG. 2 depicts the relative quantity of Acinetobacter baumannii at different concentrations of L-arabinose. Relative Acinetobacter baumannii abundance is compared in all samples after metagenomic sequencing. Bacteria are treated with L-arabinose at 5 concentrations: 0.5%, 1%, 2%, 3.5% and 5%. Only the OTU identifying the Acinetobacter baumannii genera is represented.\n(§5) The statistical analysis for FIGS. 2-5 is performed using two-tailed unpaired T-test vs NT-NS (*p-value<0.05, **p-value<0.01, ***p-value<0.001)."}, "[2]": {"tested_on": "Micrococcus luteus", "test": "Relative quantity of Micrococcus luteus by metagenomic (16S rRNA) sequencing after L-arabinose treatment", "format": "cell-based", "details": "6 hours, vs control", "text": "as §1, §2, §3, §4, §5\nFIG. 3 depicts the relative quantity of Micrococcus luteus at different concentrations of L-arabinose. Relative Micrococcus luteus abundance is compared in all samples after metagenomic sequencing. Bacteria are treated with L-arabinose at 5 concentrations: 0.5%, 1%, 2%, 3.5% and 5%. Only the OTU identifying the Micrococcus luteus genera is represented."}, "[3]": {"tested_on": "Staphylococcus epidermidis", "test": "Relative quantity of Staphylococcus epidermidis by metagenomic (16S rRNA) sequencing after L-arabinose treatment", "format": "cell-based", "details": "6 hours, vs control", "text": "as §1, with “The bacteria culture is performed according to the ATCC instructions and adapted to the specific conditions of each bacterium: all bacteria are grown in BHI medium at 37° C. in an aerobic environment shaking at 120 rpm, except for Streptococcus mitis which requires an anaerobic environment, so without shaking and with paraffin oil from Sigma-Aldrich (Cat. No. 185812) above the medium to cut off contact with air.” left out\nFIG. 4 depicts the relative quantity of Staphylococcus epidermidis at different concentrations of L-arabinose. […]"}, "[4]": {"tested_on": "Streptococcus mitis", "test": "Relative quantity of Streptococcus mitis by metagenomic (16S rRNA) sequencing after L-arabinose treatment", "format": "cell-based", "details": "for relative quantity of Streptococcus mitis / increase of relative quantity of Streptococcus mitis: vs control; for increase of relative quantity of Streptococcus mitis: statistically increases", "text": "as §1, §2, §3, §4, §5\nFIG. 5 depicts the relative quantity of Streptococcus mitis at different concentrations of L-arabinose. Relative Streptococcus mitis abundance is compared in all samples after metagenomic sequencing. Bacteria are treated with L-arabinose at 5 concentrations: 0.5%, 1%, 2%, 3.5% and 5%. Only the OTU identifying the Streptococcus mitis genera is represented."}, "[5]": {"tested_on": "bacterial pool mimicking the skin microbiota", "test": "Relative quantity of bacteria in the skin microbiota mix by metagenomic sequencing", "format": "cell-based", "details": "6 hours", "text": "as §1, §2, §3, §4\nFIG. 6 depicts the relative quantity of bacteria in the skin microbiota mix at different concentrations of L-arabinose. Relative bacteria abundance is detected in all samples after metagenomic sequencing. The bacteria seeded in the mix are Micrococcus luteus, Corynebacterium striatum, Staphylococcus epidermidis, Acinetobacter baumannii and Streptococcus mitis. Bacteria are treated with L-arabinose at 5 concentrations: 0.5%, 1%, 2%, 3.5% and 5%. All the OTUs detected are sorted by genera to be able to differentiate all the bacteria present in every sample."}, "[6]": {"tested_on": "intestinal sucrase", "details": "role: inhibitor; substrate sucrose; dietary supplement use; cited from earlier work"}, "[7]": {"details": "0.5% to 5% L-arabinose, 6 hours"}},
  "note": "“Also recorded” adds a separate entry of the source.",
  "data": [
    {"compound": "O=C[C@H](O)[C@@H](O)[C@@H](O)CO", "note": "[L-arabinose]", "values": [
      {"measurement": "effect on Acinetobacter baumannii", "setting": "[1]; 0.5% L-arabinose", "result": "promotes Acinetobacter baumannii"},
      {"measurement": "increase of relative quantity of Acinetobacter baumannii compared to the NT-NS control", "setting": "[1]; 0.5% L-arabinose, 6 hours, vs NT-NS control", "result": 7, "unit": "%"},
      {"measurement": "effect on Acinetobacter baumannii (dose dependence)", "setting": "[1]; [7]", "result": "dose-dependent effect"},
      {"measurement": "relative quantity of Acinetobacter baumannii", "setting": "[1]; 1% L-arabinose, 6 hours, vs NT-NS control", "result": "the same than the control"},
      {"measurement": "relative quantity of Acinetobacter baumannii", "setting": "[1]; 2% L-arabinose, 6 hours, vs NT-NS control", "result": "the same than the control"},
      {"measurement": "decrease of relative quantity of Acinetobacter baumannii compared to the NT-NS control", "setting": "[1]; 5% L-arabinose, 6 hours, vs NT-NS control, statistically decreases", "result": "up to 7%"},
      {"measurement": "relative quantity of Micrococcus luteus", "setting": "[2]; 0.5% L-arabinose", "result": "inhibit Micrococcus luteus; also recorded: statistically decreases"},
      {"measurement": "relative quantity of Micrococcus luteus", "setting": "[2]; 1% L-arabinose", "result": "no statistically significant change"},
      {"measurement": "relative quantity of Micrococcus luteus", "setting": "[2]; 2% L-arabinose", "result": "statistically significant increase"},
      {"measurement": "relative quantity of Micrococcus luteus", "setting": "[2]; 3.5% L-arabinose", "result": "no statistically significant change"},
      {"measurement": "relative quantity of Micrococcus luteus", "setting": "[2]; 5% L-arabinose", "result": "no statistically significant change"},
      {"measurement": "relative quantity of Staphylococcus epidermidis", "setting": "[3]; 0.5% L-arabinose", "result": "tendency to decrease"},
      {"measurement": "relative quantity of Staphylococcus epidermidis", "setting": "[3]; other concentrations (1%, 2%, 3.5%, 5%) of L-arabinose", "result": "no statistical differences"},
      {"measurement": "relative quantity of Streptococcus mitis", "setting": "[4]; 0.5% L-arabinose, 6 hours", "result": "tends to decrease"},
      {"measurement": "effect on Streptococcus mitis (dose dependence)", "setting": "[4]; [7]", "result": "dose-dependent effect"},
      {"measurement": "relative quantity of Streptococcus mitis", "setting": "[4]; 1% L-arabinose, 6 hours", "result": "tends to decrease"},
      {"measurement": "relative quantity of Streptococcus mitis", "setting": "[4]; 2% L-arabinose, 6 hours", "result": "the same than the control"},
      {"measurement": "increase of relative quantity of Streptococcus mitis", "setting": "[4]; 3.5% L-arabinose, 6 hours", "result": "more than 2 times"},
      {"measurement": "increase of relative quantity of Streptococcus mitis", "setting": "[4]; 5% L-arabinose, 6 hours", "result": "more than 2 times"},
      {"measurement": "effect on Streptococcus mitis", "setting": "[4]; higher concentrations of L-arabinose (3.5% and 5%)", "result": "promotes Streptococcus mitis"},
      {"measurement": "relative quantity of bacteria in the skin microbiota mix", "setting": "[5]; 0.5% L-arabinose", "result": "Acinetobacter baumannii is outgrowing the other bacteria"},
      {"measurement": "homeostasis of the skin microbiota", "setting": "[5]; 1% L-arabinose", "result": "maintaining the homeostasis of skin microbiota; also recorded: safekeeping the homeostasis of the skin microbiota"},
      {"measurement": "difference of the bacterial mix compared to the NT-NS control", "setting": "[5]; 1% or 2% L-arabinose, vs NT-NS control", "result": "no significant difference"},
      {"measurement": "homeostasis of the skin microbiota", "setting": "[5]; 2% L-arabinose", "result": "maintaining the homeostasis of skin microbiota; also recorded: safekeeping the homeostasis of the skin microbiota"},
      {"measurement": "relative quantity of bacteria in the skin microbiota mix", "setting": "[5]; 3.5% L-arabinose", "result": "Streptococcus mitis is fast growing at the expense of Acinetobacter baumannii"},
      {"measurement": "relative quantity of bacteria in the skin microbiota mix", "setting": "[5]; 5% L-arabinose", "result": "Streptococcus mitis is fast growing at the expense of Acinetobacter baumannii"},
      {"measurement": "inhibition of sucrose absorption by inhibiting intestinal sucrase", "setting": "[6]", "result": "ability to inhibit absorption of sucrose"}
    ]}
  ]
}
